Non-standard residues stand in square brackets, D forms with d. Residues, ends and D or L forms follow the SMILES beside them. *: point of attachment. NMeI = CC[C@H](C)[C@H](NC)C(=O)O; NMeD = CN[C@@H](CC(=O)O)C(=O)O; NMeV = CN[C@H](C(=O)O)C(C)C; Pip = O=C(O)[C@@H]1CCCCN1; Lac = C[C@H](O)C(=O)O; OtBu = CC(C)(C)O*
Experiments:
CHO [1] = experiment: The sensitizing capacity for colchicine treatment of parental (PAR)CHO cells at concentration 1.0 (mg/L); format: functional, Cricetulus griseus
CHO [2] = experiment: The sensitizing capacity for colchicine treatment of multi drug resistance (MDR) CHO cell at concentration 1.0(mg/L).; format: functional, Cricetulus griseus
CHO [3] = experiment: Sensitization of colchicine treated parental (PAR)CHO cells, measured at concentration 0.1(mg/L); format: functional, Cricetulus griseus
CHO [4] = experiment: The sensitizing capacity for colchicine treatment of multi drug resistance(MDR) in CHO cell at concentration 0.1(mg/L).; format: functional, Cricetulus griseus
KB [5] = experiment: The sensitizing capacity of compound for colchicine treatment of multi drug resistance in KB cell was measured at concentration 3.0 (mg/L); format: functional, Homo sapiens
KB [6] = experiment: The sensitizing capacity of compound for colchicine treatment of multi drug resistance in KB cell was measured at concentration 1.0(mg/L); format: functional, Homo sapiens
CHO [7] = experiment: The sensitizing capacity of compound for colchicine treatment of parental (PAR)CHO cells was measured at concentration 0.1 (mg/L); format: functional, Cricetulus griseus
KB (human) = experiment: The sensitizing capacity of compound for colchicine treatment of multi drug resistance in KB cell was measured at concentration 1.0(mg/L)

Row | SMILES | Activity (CHO [1]) | Activity (CHO [2]) | Activity (CHO [3]) | Activity (CHO [4]) | Activity (KB [5]) | Activity (KB [6]) | Activity (CHO [7]) | Activity (KB (human))
1 | CC[C@H](C)[C@H]1C(=O)NCC(=O)N(C)[C@@H](C(C)C)C(=O)N[C@@H](Cc2ccc(OC)cc2)C(=O)O[C@H](C)C(=O)N2CCCC[C@H]2C(=O)N(C)[C@@H](C(C)C)C(=O)N[C@@H](C(C)C)C(=O)N(C)[C@@H](CC(=O)OC)C(=O)N(C)[C@@H]([C@@H](C)CC)C(=O)N1C | 8.4 | 84 | 6.4 | 1.9 |  |  |  | 
2 | CC[C@@H](C)[C@H]1C(=O)NCC(=O)N(C)[C@@H](C(C)C)C(=O)N[C@@H](Cc2ccc(OC)cc2)C(=O)O[C@H](C)C(=O)N2CCCC[C@H]2C(=O)N(C)[C@@H](C(C)C)C(=O)N[C@@H](C(C)C)C(=O)N(C)[C@H](CC=O)C(=O)N(C)[C@@H]([C@@H](C)CC)C(=O)N1C | 8.2 | 28 | 4.6 | 1.1 |  |  |  | 
3 | CC[C@@H](C)[C@H]1C(=O)NCC(=O)N(C)[C@@H](C(C)C)C(=O)N[C@@H](Cc2ccc(OC)cc2)C(=O)O[C@@H](C)C(=O)N2CCCC[C@H]2C(=O)N(C)[C@@H](C(C)C)C(=O)N[C@@H](C(C)C)C(=O)N(C)[C@H](CC(=O)NCC(C)(C)C)C(=O)N(C)[C@@H]([C@@H](C)CC)C(=O)N1C | 13 | 358 | 8 | 95 | 82 | 2.2 |  | 
4 | CC[C@@H](C)[C@H]1C(=O)NCC(=O)N(C)[C@@H](C(C)C)C(=O)N[C@@H](Cc2ccc(OC)cc2)C(=O)O[C@@H](C)C(=O)N2CCCC[C@H]2C(=O)N(C)[C@@H](C(C)C)C(=O)N[C@@H](C(C)C)C(=O)N(C)[C@H](CC(=O)NCCC(C)C)C(=O)N(C)[C@@H]([C@@H](C)CC)C(=O)N1C | 8.6 | 273 | 7.7 | 83 | 54 | 1.5 |  | 
5 | CC[C@@H](C)[C@H]1C(=O)NCC(=O)N(C)[C@@H](C(C)C)C(=O)N[C@@H](Cc2ccc(OC)cc2)C(=O)O[C@@H](C)C(=O)N2CCCC[C@H]2C(=O)N(C)[C@@H](C(C)C)C(=O)N[C@@H](C(C)C)C(=O)N(C)[C@H](CC(=O)NC(C)(C)C)C(=O)N(C)[C@@H]([C@@H](C)CC)C(=O)N1C | 12 | 343 | 8.4 | 70 | 113 | 1.5 |  | 
6 | CC[C@H](C)[C@H]1C(=O)NCC(=O)N(C)[C@@H](C(C)C)C(=O)N[C@@H](Cc2ccc(OC)cc2)C(=O)O[C@@H](C)C(=O)N2CCCC[C@H]2C(=O)N(C)[C@@H](C(C)C)C(=O)N[C@@H](C(C)C)C(=O)N(C)[C@@H](CC(=O)OCC23CC4CC(CC(C4)C2)C3)C(=O)N(C)[C@@H]([C@@H](C)CC)C(=O)N1C | 7.4 | 78 | 6.9 | 1.4 | 3 | 1.3 |  | 
7 | CC[C@H](C)[C@H]1C(=O)NCC(=O)N(C)[C@@H](C(C)C)C(=O)N[C@@H](Cc2ccc(OC)cc2)C(=O)O[C@@H](C)C(=O)N2CCCC[C@H]2C(=O)N(C)[C@@H](C(C)C)C(=O)N[C@@H](C(C)C)C(=O)N(C)[C@@H](CC(=O)OCCC(C)(C)C)C(=O)N(C)[C@@H]([C@@H](C)CC)C(=O)N1C | 7.9 | 292 | 6.7 | 17 | 25 | 1.7 |  | 
8 | C=CCOc1ccc(C[C@@H]2NC(=O)[C@H](C(C)C)N(C)C(=O)CNC(=O)[C@H]([C@@H](C)CC)N(C)C(=O)[C@H]([C@@H](C)CC)N(C)C(=O)[C@H](CC(=O)OC(C)(C)C)N(C)C(=O)[C@H](C(C)C)NC(=O)[C@H](C(C)C)N(C)C(=O)[C@@H]3CCCCN3C(=O)[C@@H](C)OC2=O)cc1 | 11 | 9.6 | 5.8 | 1.5 |  |  |  | 
9 | CC[C@@H](C)[C@H]1C(=O)NCC(=O)N(C)[C@@H](C(C)C)C(=O)N[C@@H](Cc2ccc(OC)cc2)C(=O)O[C@H](C)C(=O)N2CCCC[C@H]2C(=O)N(C)[C@@H](C(C)C)C(=O)N[C@@H](C(C)C)C(=O)N(C)[C@H](CC(=O)O)C(=O)N(C)[C@@H]([C@@H](C)CC)C(=O)N1C | 7.6 | 1.8 |  | 1.1 |  |  | 2.2 | 
10 | CC[C@@H](C)[C@H]1C(=O)NCC(=O)N(C)[C@@H](C(C)C)C(=O)N[C@@H](Cc2ccc(OC)cc2)C(=O)O[C@H](C)C(=O)N2CCCC[C@H]2C(=O)N(C)[C@@H](C(C)C)C(=O)N[C@@H](C(C)C)C(=O)N(C)[C@H](CC(=O)N[C@H](C(=O)OC(C)(C)C)C(C)C)C(=O)N(C)[C@@H]([C@@H](C)CC)C(=O)N1C | 8.5 | 187 | 6 | 15 | 124 | 1.2 |  | 
11 | CC[C@@H](C)[C@H]1C(=O)NCC(=O)N(C)[C@@H](C(C)C)C(=O)N[C@@H](Cc2ccc(OC)cc2)C(=O)O[C@H](C)C(=O)N2CCCC[C@H]2C(=O)N(C)[C@@H](C(C)C)C(=O)N[C@@H](C(C)C)C(=O)N(C)[C@H](CC(=O)N2CCCCC2)C(=O)N(C)[C@@H]([C@@H](C)CC)C(=O)N1C | 10 | 137 | 7.1 | 3.2 |  |  |  | 
12 | CC[C@H](C)[C@H]1C(=O)NCC(=O)N(C)[C@@H](C(C)C)C(=O)N[C@@H](Cc2ccc(OC)cc2)C(=O)O[C@@H](C)C(=O)N2CCCC[C@H]2C(=O)N(C)[C@@H](C(C)C)C(=O)N[C@@H](C(C)C)C(=O)N(C)[C@@H](CC(=O)NC[Si](C)(C)C)C(=O)N(C)[C@@H]([C@@H](C)CC)C(=O)N1C | 11 | 336 | 7.4 | 81 | 123 | 1.3 |  | 
13 | CC[C@@H](C)[C@H]1C(=O)NCC(=O)N(C)[C@@H](C(C)C)C(=O)N[C@@H](Cc2ccc(OC)cc2)C(=O)O[C@@H](C)C(=O)N2CCCC[C@H]2C(=O)N(C)[C@@H](C(C)C)C(=O)N[C@@H](C(C)C)C(=O)N(C)[C@H](CC(=O)NC23CC4CC(CC(C4)C2)C3)C(=O)N(C)[C@@H]([C@@H](C)CC)C(=O)N1C | 8 | 290 | 7.7 | 92 | 772 | 3.7 |  | 
14 | CC[C@H](C)[C@H]1C(=O)NCC(=O)N(C)[C@@H](C(C)C)C(=O)N[C@@H](Cc2ccc(OC)cc2)C(=O)O[C@H](C)C(=O)N2CCCC[C@H]2C(=O)N(C)[C@@H](C(C)C)C(=O)N[C@@H](C(C)C)C(=O)N(C)[C@@H](CC(=O)NCCC(C)C)C(=O)N(C)[C@@H]([C@@H](C)CC)C(=O)N1C | 8.1 | 126 | 5.8 | 3.7 | 1.1 | 1 |  | 
15 | CC[C@H](C)[C@H]1C(=O)NCC(=O)N(C)[C@@H](C(C)C)C(=O)N[C@@H](Cc2ccc(O)cc2)C(=O)O[C@H](C)C(=O)N2CCCC[C@H]2C(=O)N(C)[C@@H](C(C)C)C(=O)N[C@@H](C(C)C)C(=O)N(C)[C@@H](CC(=O)OC(C)(C)C)C(=O)N(C)[C@@H]([C@@H](C)CC)C(=O)N1C | 14 | 172 | 6.5 | 2.5 |  |  |  | 
16 | CC[C@@H](C)[C@H]1C(=O)NCC(=O)N(C)[C@@H](C(C)C)C(=O)N[C@@H](Cc2ccc(OC)cc2)C(=O)O[C@H](C)C(=O)N2CCCC[C@H]2C(=O)N(C)[C@@H](C(C)C)C(=O)N[C@@H](C(C)C)C(=O)N(C)[C@H](CC(=O)NC23CC4CC(CC(C4)C2)C3)C(=O)N(C)[C@@H]([C@@H](C)CC)C(=O)N1C | 8.9 | 177 | 7.3 | 25 | 3.7 |  |  | 1.1
17 | CC[C@@H](C)[C@H]1C(=O)NCC(=O)N(C)[C@@H](C(C)C)C(=O)N[C@@H](Cc2ccc(OC)cc2)C(=O)O[C@H](C)C(=O)N2CCCC[C@H]2C(=O)N(C)[C@@H](C(C)C)C(=O)N[C@@H](C(C)C)C(=O)N(C)[C@H](CC(=O)NCC(C)(C)C)C(=O)N(C)[C@@H]([C@@H](C)CC)C(=O)N1C | 12 | 155 | 7.4 | 11 | 2.3 | 1.1 |  | 
18 | CC[C@@H](C)[C@H]1C(=O)NCC(=O)N(C)[C@@H](C(C)C)C(=O)N[C@@H](Cc2ccc(OC)cc2)C(=O)O[C@H](C)C(=O)N2CCCC[C@H]2C(=O)N(C)[C@@H](C(C)C)C(=O)N[C@@H](C(C)C)C(=O)N(C)[C@H](CC(=O)NC(C)(C)C)C(=O)N(C)[C@@H]([C@@H](C)CC)C(=O)N1C | 8.4 | 151 | 4.4 | 4.1 |  |  |  | 
19 | CC[C@H](C)[C@H]1C(=O)N(C)[C@@H]([C@@H](C)CC)C(=O)NCC(=O)N(C)[C@@H](C(C)C)C(=O)N[C@@H](Cc2ccc(OC)cc2)C(=O)O[C@H](C)C(=O)N2CCCC[C@H]2C(=O)N(C)[C@@H](C(C)C)C(=O)N[C@@H](C(C)C)C(=O)N(C)[C@H](CN(C)C(C=O)CCCC(=O)OC(C)(C)C)C(=O)N1C (some centres undefined) | 8.2 | 114 | 6.8 | 4.2 |  |  |  | 
20 | CC[C@H](C)[C@H]1C(=O)NCC(=O)N(C)[C@@H](C(C)C)C(=O)N[C@@H](Cc2ccc(OC)cc2)C(=O)O[C@@H](C)C(=O)N2CCCC[C@H]2C(=O)N(C)[C@@H](C(C)C)C(=O)N[C@@H](C(C)C)C(=O)N(C)[C@@H](CC(=O)OC(C)(C)C)C(=O)N(C)[C@@H]([C@@H](C)CC)C(=O)N1C (cyclo(G[NMeV]Y(Me)[Lac][Pip][NMeV]V[NMeD](OtBu)[NMeI][NMeI])) | 7 | 333 | 5.4 | 66 | 196 | 3.6 |  | 

Reference: ChEMBL document CHEMBL1127553, “Derivatives of a novel cyclopeptolide. 2. Synthesis, activity against multidrug resistance in CHO and KB cells in vitro, and structure-activity relationships” (1994)
